Experimental data: patent publication US20100034836A1, “COMPOSITIONS AND METHODS FOR THE DIAGNOSIS AND ALLEVIATION OF TUMOR” (priority 2006, published 2010)

How the values were obtained:
[1] = tested on: MEK1/2
Method: Experiments were performed to identify the TASK121 downstream signals that are important for TASK122 expression. A375, 928-MEL, COL0205 and SK23-MEL cell lines were characterized for TASK121 and RAS activating mutations and TASK122 expression was measured by immunoblotting of these tumors cells when cultured in the presence or absence of the MEK1/2 inhibitor, U0126 (Favata et al., J Biol Chem 273:18623-32 (1998)).

[2] = molecular target: ΔTASK121-ER (Mus musculus, UniProt P19785, G525R); conditions: NIH 3T3 ΔTASK121-ER cells, minimal media, 0-2000 nM 4OHT for 24 hours
ΔTASK121-ER, sequence (P19785 315-551 G525R limits assumed): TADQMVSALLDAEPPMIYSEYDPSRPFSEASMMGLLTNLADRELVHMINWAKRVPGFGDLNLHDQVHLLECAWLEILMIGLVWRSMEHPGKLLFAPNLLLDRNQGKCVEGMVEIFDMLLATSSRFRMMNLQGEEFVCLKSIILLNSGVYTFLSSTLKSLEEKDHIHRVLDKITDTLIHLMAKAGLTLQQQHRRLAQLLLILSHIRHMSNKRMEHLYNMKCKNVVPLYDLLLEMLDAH
ΔTASK121-ER, sequence (P15056 457-717 partner limits assumed): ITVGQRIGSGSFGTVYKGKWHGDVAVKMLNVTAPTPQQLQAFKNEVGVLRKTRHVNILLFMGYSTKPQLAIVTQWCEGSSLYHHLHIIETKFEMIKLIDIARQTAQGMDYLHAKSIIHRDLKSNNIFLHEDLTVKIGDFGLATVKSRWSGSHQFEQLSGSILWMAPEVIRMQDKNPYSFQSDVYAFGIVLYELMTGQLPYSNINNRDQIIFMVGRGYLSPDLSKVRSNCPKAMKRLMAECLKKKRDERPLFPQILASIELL
Source text: (§1) To identify genes that are regulated specifically in response to TASK121 activation and not as a result of full mitogenic stimulation, TASK121 was conditionally activated using the previously described estrogen receptor (ER) fusion protein system (Samuels et al., Mol Cell Biol 13:6241-52 (1993)). The catalytic domains of wild-type and oncogenic human TASK121 (denoted as ΔTASK121 and ΔTASK121^V600E, respectively) were fused to a variant of the murine ER hormone-binding domain in which a G525R mutation switches responsiveness from endogenous estrogen to a synthetic antagonist, 4-hydroxytamoxifen (4OHT) (Danielian, et al., Mol Endocrinol 7:232-40 (1993)). […] NIH 3T3 cells expressing ΔTASK121-ER, ΔTASK121^V600E-ER or empty vector were derived by retroviral infection and several independent clones were characterized to ensure against a clonal selection bias. To determine effective doses for inducing TASK121 kinase activity, ΔTASK121-ER and ΔTASK121^V600EER cells were cultured in minimal media and stimulated with 0-2000 nM 4OHT for 24 hours. […] Accumulation of ΔTASK121-ER and ΔTASK121^V600E-ER chimeric proteins and corresponding ERK1/2 phosphorylation were detected by immunoblotting.

[3] = molecular target: ΔTASK121^V600E-ER (Mus musculus, UniProt P19785, G525R); conditions: NIH 3T3 ΔTASK121^V600E-ER cells, minimal media, 0-2000 nM 4OHT for 24 hours
ΔTASK121^V600E-ER, sequence (P19785 315-551 G525R): as the sequence (P19785 315-551 G525R limits assumed) above
ΔTASK121^V600E-ER, sequence (P15056 457-717 V600E partner limits assumed): as the sequence (P15056 457-717 partner limits assumed) above, with V144E counted along it
Source text: as §1

[4] = tested on: ΔTASK121^V600E-ER cells; test: Morphological transformation of 3T3 cells upon 4OHT induction; type: cell-based; conditions: 200 nM 4OHT, within 24 hours
[5] = tested on: tumor; conditions: nude mouse tumor model (Teicher et al. 2002); cited from earlier work
[6] = tested on: endogenous TASK121; test: Dox-induced shRNA knockdown in A375 melanoma cells, immunoblotting; type: cell-based
Source text: The regulation of TASK122 by TASK 121 was directly addressed in an RNAi knockdown experiment. A375 melanoma cells, which contain an endogenous TASK121^V600E allele, were infected with a retrovirus expressing either TASK121 specific shRNAs or a control firefly Luciferase shRNA. Hairpin oligonucleotides used in this study are as follows:
In this system, the Tet repressor protein binds a modified polIII promoter thereby preventing shRNA expression. However, in the presence of a tetracycline analog, doxycycline (Dox), the Tet repressor protein is released from the promoter resulting in shRNA transcription and knockdown of endogenous TASK121 or luciferase expression.

[7] = 10 μM U0126, A375, 928-MEL, COL0205 and SK23-MEL cell lines

N#CC(=C(/N)Sc1ccccc1N)/C(C#N)=C(\N)Sc1ccccc1N [U0126]
TASK122 expression ([1]; 10 μM U0126, inhibition of ERK1/2 phosphorylation): abolished
ERK1/2 phosphorylation [1, 7]: decreased
total ERK2 levels [1, 7]: unaffected

4-hydroxytamoxifen [4OHT]
4OHT concentration at which TASK121-mediated signaling was maximal [2]: 100 nM
4OHT concentration at which TASK121-mediated signaling was maximal [3]: 10 nM
cell morphology [4]: refractile and spindle-shaped phenotype

Cl.Cn1cc(C2=C(c3cn(C4CCN(Cc5ccccn5)CC4)c4ccccc34)C(=O)NC2=O)c2ccccc21 [317615-HCL]
anti-tumor effect [5]: anti-tumor effect

B1: TASK121 shRNA: hairpin oligonucleotides SEQ ID NO: 7 (sense) and SEQ ID NO: 8 (antisense), retrovirally expressed, Tet-regulated (nucleic acid)
sense: GATCCCCAGAATTGGATCTGGATCATTTCAAGAGAATGATCCAGATCCAATTCTTTTTTTGGAAA
antisense: AGCTTTTCCAAAAAAAGAATTGGATCTGGATCATTCTCTTGAAATGATCCAGATCCAATTCTGGG
modifications: the letters are possibly those of the target site
TASK122 levels [6]: significant reduction
phosphorylated ERK1/2 [6]: significant reduction
total ERK2 levels [6]: remained unchanged

B2: Luciferase shRNA: control firefly Luciferase shRNA, SEQ ID NO: 9 (sense) and 10 (antisense) (nucleic acid)
sense: GATCCCCCTTACGCTGAGTACTTCGATTCAAGAGATCGAAGTACTCAGCGTAAGTTTTTTGGAAA
antisense: AGCTTTTCCAAAAAACTTACGCTGAGTACTTCGATCTCTTGAATCGAAGTACTCAGCGTAAGGGG
modifications: the letters are possibly those of the target site
TASK122 levels [6]: did not alter
